# Measured values reported in patent US7723523B2, “Tetrahydropyridothiophenes” (4SC AG, priority 2004, dated 2010).
# What was measured:
# [1] = tested on: RKO colon adenocarcinoma cells (RKOp27) arrested by expression of ectopic p27Kip1; assay: Alamar Blue cell viability assay on RKOp27 cells arrested by Ponasterone A-induced p27Kip1 (cell cycle specific mode of action); type: cell-based; details: Homo sapiens, RKOp27, 72 h, cells arrested by p27Kip1 induced with 10 μM Ponasterone A, 72 hours incubation, read-out: IC50 RKO p27 arrested
# In short: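 Viability measured by Alamar Blue fluorescence (ex 544, em 590 nm) after 72 h, 37 °C compound exposure in quadruplicate, normalized to untreated cells as 100%. Cells were p27Kip1-arrested RKOp27, induced with 10 μM Ponasterone A at seeding; compound added 24 h later.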
# [2] = tested on: RKO (RKOp27) human colon adenocarcinoma cells; assay: Alamar Blue cell viability assay, anti-proliferative/cytotoxic activity on proliferating RKOp27 cells; type: cell-based; details: absence of Ponasterone A, 72 hours incubation, read-out: IC50 RKO p27 proliferating
# In short: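 RKOp27 subclone of RKO cells, 4000/well in DMEM with 10% FCS, was treated 24 h after seeding with semi-log compound dilutions in quadruplicate for 72 h at 37 °C, 5% CO2. Alamar Blue fluorescence (ex 544/em 590 nm) was read as % viability of untreated cells, and IC50 was taken from concentration-effect curves.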
SMILES,IC50 [1],IC50 [2]
"CCOC(=O)N1CCc2c(sc(NC(=O)/C=C/c3ccccc3OC(C)C)c2C#N)C1 [Example 98, 3-Cyano-2-[(E)-3-(2-isopropoxy-phenyl)-allanoylamino]-4,7-dihydro-5H-thieno[2,3-c]pyridine-6-carboxylic acid ethyl ester]",≥ 100 µM,≤ 2 µM
"CCCOc1ccccc1/C=C/C(=O)Nc1sc2c(c1C#N)CCN(C(=O)OCC)C2 [Example 99, 3-Cyano-2-[(E)-3-(2-propoxy-phenyl)-allanoylamino]-4,7-dihydro-5H-thieno[2,3-c]pyridine-6-carboxylic acid ethyl ester]",≥ 50 µM,≤ 0.5 µM
"CCOC(=O)N1CCc2c(sc(NC(=O)/C=C/c3cc(OC)ccc3OC)c2C#N)C1 [Example 102, 3-Cyano-2-[(E)-3-(2,5-dimethoxy-phenyl)-allanoylamino]-4,7-dihydro-5H-thieno[2,3-c]pyridine-6-carboxylic acid ethyl ester]",≥ 100 µM,≤ 2 µM
"CN(C)CCOC(=O)N1CCc2c(sc(NC(=O)/C=C/c3ccccc3)c2C#N)C1 [Example 113, 3-Cyano-2-((E)-3-phenyl-allanoylamino)-4,7-dihydro-5H-thieno[2,3-c]pyridine-6-carboxylic acid 2-dimethylamino-ethyl ester]",≥ 50 µM,≤ 0.5 µM
N#Cc1c(NC(=O)/C=C/c2ccccc2)sc2c1CCN(C(=O)OCCN1CCCC1)C2 [Example 114],≥ 100 µM,≤ 2 µM
"N#Cc1c(NC(=O)/C=C/c2ccccc2)sc2c1CCN(C(=O)OCCc1ccccn1)C2 [Example 116, 3-Cyano-2-((E)-3-phenyl-allanoylamino)-4,7-dihydro-5H-thieno[2,3-c]pyridine-6-carboxylic acid 2-pyridin-2-yl-ethyl ester]",≥ 100 µM,≤ 2 µM
"N#Cc1c(NC(=O)/C=C/c2ccccc2)sc2c1CCN(C(=O)OCCCc1ccncc1)C2 [Example 117, 3-Cyano-2-((E)-3-phenyl-allanoylamino)-4,7-dihydro-5H-thieno[2,3-c]pyridine-6-carboxylic acid 3-pyridin-4-yl-propyl ester]",≥ 100 µM,≤ 2 µM
"COCCOC(=O)N1CCc2c(sc(NC(=O)/C=C/c3ccccc3)c2C#N)C1 [Example 118, 3-Cyano-2-((E)-3-phenyl-allanoylamino)-4,7-dihydro-5H-thieno[2,3-c]pyridine-6-carboxylic acid 2-methoxy-ethyl ester]",≥ 100 µM,≤ 2 µM
"Cc1ncc([N+](=O)[O-])n1CCOC(=O)N1CCc2c(sc(NC(=O)/C=C/c3ccccc3)c2C#N)C1 [Example 122, 3-Cyano-2-((E)-3-phenyl-allanoylamino)-4,7-dihydro-5H-thieno[2,3-c]pyridine-6-carboxylic acid 2-(2-methyl-5-nitro-imidazol-1-yl)-ethyl ester]",≥ 100 µM,≤ 2 µM
"N#Cc1c(NC(=O)/C=C/c2ccccc2)sc2c1CCN(C(=O)OCCc1ccncc1)C2 [Example 126, 3-Cyano-2-((E)-3-phenyl-allanoylamino)-4,7-dihydro-5H-thieno[2,3-c]pyridine-6-carboxylic acid 2-pyridin-4-yl-ethyl ester]",≥ 100 µM,≤ 2 µM
"CC1(C)OCC(COC(=O)N2CCc3c(sc(NC(=O)/C=C/c4ccccc4)c3C#N)C2)O1 (centres unmarked) [Example 127, 3-Cyano-2-((E)-3-phenyl-allanoylamino)-4,7-dihydro-5H-thieno[2,3-c]pyridine-6-carboxylic acid 2,2-dimethyl-[1,3]dioxolan-4-ylmethyl ester]",≥ 100 µM,≤ 2 µM
"N#Cc1c(NC(=O)/C=C/c2ccccc2)sc2c1CCN(C(=O)OCC(O)CO)C2 (centres unmarked) [Example 128, 3-Cyano-2-((E)-3-phenyl-allanoylamino)-4,7-dihydro-5H-thieno[2,3-c]pyridine-6-carboxylic acid 2,3-dihydroxy-propyl ester]",≥ 100 µM,≤ 2 µM

# Continued, in another order:
IC50 [1],SMILES,IC50 [2]
≥ 100 µM,"CCOC(=O)N1CCc2c(sc(NC(=O)/C=C/c3cccn3C)c2C#N)C1 [Example 97, 3-Cyano-2-[(E)-3-(1-methyl-1H-pyrrol-2-yl)-allanoylamino]-4,7-dihydro-5H-thieno[2,3-c]pyridine-6-carboxylic acid ethyl ester]",≤ 2 µM
≥ 100 µM,"CCOC(=O)N1CCc2c(sc(NC(=O)/C=C/c3ccccn3)c2C#N)C1 [Example 100, 3-Cyano-2-((E)-3-pyridin-2-yl-allanoylamino)-4,7-dihydro-5H-thieno[2,3-c]pyridine-6-carboxylic acid ethyl ester]",≤ 2 µM
≥ 100 µM,"CCOC(=O)N1CCc2c(sc(NC(=O)/C=C/c3ccc[nH]3)c2C#N)C1 [Example 103, 3-Cyano-2-((E)-3-1-H-pyrrol-2-yl-allanoylamino)-4,7-dihydro-5H-thieno[2,3-c]pyridine-6-carboxylic acid ethylester]",≤ 2 µM
≥ 100 µM,"CCOC(=O)N1CCc2c(sc(NC(=O)/C=C/c3ccccc3Oc3ccccc3)c2C#N)C1 [Example 104, 3-Cyano-2-[(E)-3-(2-phenoxy-phenyl)-allanoylamino]-4,7-dihydro-5H-thieno[2,3-c]pyridine-6-carboxylic acid ethyl ester]",≤ 2 µM
≥ 100 µM,"CCOC(=O)N1CCc2c(sc(NC(=O)/C=C/c3c(OC)cccc3OC)c2C#N)C1 [Example 108, 3-Cyano-2-[(E)-3-(2,6-dimethoxy-phenyl)-allanoylamino]-4,7-dihydro-5H-thieno[2,3-c]pyridine-6-carboxylic acid ethyl ester]",≤ 2 µM
≥ 100 µM,"CCOC(=O)N1CCc2c(sc(NC(=O)/C=C/c3cccc4c3OCO4)c2C#N)C1 [Example 111, 2-((E)-3-Benzo[1,3]dioxol-4-yl-allanoylamino)-3-cyano-4,7-dihydro-5H-thieno[2,3-c]pyridine-6-carboxylic acid ethyl ester]",≤ 2 µM
≥ 100 µM,"N#Cc1c(NC(=O)/C=C/c2ccccc2)sc2c1CCN(C(=O)OCCN1CCOCC1)C2 [Example 112, 3-Cyano-2-((E)-3-phenyl-allanoylamino)-4,7-dihydro-5H-thieno[2,3-c]pyridine-6-carboxylic acid 2-morpholin-4-yl-ethyl ester]",≤ 2 µM
≥ 100 µM,"N#Cc1c(NC(=O)/C=C/c2ccccc2)sc2c1CCN(C(=O)OCCCN1CCOCC1)C2 [Example 120, 3-Cyano-2-((E)-3-phenyl-allanoylamino)-4,7-dihydro-5H-thieno[2,3-c]pyridine-6-carboxylic acid 3-morpholin-4-yl-propyl ester]",≤ 2 µM
≥ 50 µM,"N#Cc1c(NC(=O)/C=C/c2ccccc2)sc2c1CCN(C(=O)OCCCc1ccccn1)C2 [Example 124, 3-Cyano-2-((E)-3-phenyl-allanoylamino)-4,7-dihydro-5H-thieno[2,3-c]pyridin-6-carboxylic acid 3-pyridin-2-yl-propyl ester]",≤ 0.5 µM
≥ 100 µM,"N#Cc1c(NC(=O)/C=C/c2ccccc2)sc2c1CCN(C(=O)OCCCc1cccnc1)C2 [Example 125, 3-Cyano-2-((E)-3-phenyl-allanoylamino)-4,7-dihydro-5H-thieno[2,3-c]pyridine-6-carboxylic acid 3-pyridin-3-yl-propyl ester]",≤ 2 µM
